Measurements published in article PMC7290441 (Viruses, 2020).
Structures can show the parent of a compound that is named as a salt.

Biological target: PR8M2-S (A27V/N31S reverse mutant of PR8 M2) (Influenza A virus, UniProt P06821, A27V/N31S)
Type: biochemical
Conditions: pH 5.2

SMILES | effect on proton channel function of PR8M2-S
NC12CC3CC(CC(C3)C1)C2 [AMT, amantadine hydrochloride] | inhibited
CC(CCc1ccccc1)NC(C)C(O)c1ccc(O)cc1 (centres unmarked) [Nylidrin, nylidrin] | no effect
